Consider one compound from patent US20230295212A1 (ROME Therapeutics, Inc., priority 2022, published 2023).

One experiment deals with THP1 Dual TREX1 KO cells. The experiment is described as follows: THP1 TREX1 KO inhibition assay, combination dosing (stampidine and Compound 2). The settings on record: combination of stampidine and Compound 2; k>0 denotes synergy. The experiment is classed as cell-based. As to the method:
Exemplary compounds were tested to determine the effect of combined dosing of two compounds on the type 1 interferon response in THP1 Dual TREX1 KO cells treated with 5-aza-2′-deoxycytidine. Assay procedures and results are described below.
THP1 Dual TREX1 KO cells were purchased from InvivoGen. The THP1-Dual™ KO-TREX1 cells were cultured in RPMI 1640, 10% heat-inactivated fetal bovine serum, 25 mM HEPES, 10 μg/mL blasticidin, and 100 μg/mL Zeocin. THP1-Dual™ KO-TREX1 cells were treated with a dose titration of test compound in the presence of 1 μM 5-aza-2′-deoxycytidine (Sigma, cat #189825). Type 1 Interferon and cell viability were assessed after five days of treatment.
Stock solution of test compounds stampidine and Compound 2 were prepared in DMSO followed by a three-fold dilution in DMSO. […]
THP1-Dual™ KO-TREX1 cells were treated with 1 μM 5-aza-2′-deoxycytidine. […] Luminescence was detected on a plate reader according to manufacturer's instructions. […]
The remaining cells were assessed for cell viability by adding 30 μl of CellTiter-Glo (Promega, G9683) solution to each well, and placed on a shaker for 10 minutes at room temperature. Luminescence was detected on a plate reader, according to manufacturer's instructions. […]

The target of experiment [1] is T1, LINE1 reverse transcriptase (Homo sapiens, UniProt O00370).
T1 construct: expressed in transfected cells; host or cells: HeLa Tet-On 3G (Takara, cat no 631183)
Put plainly: Stable artificial-intron Cis LINE1 reporter assay (HeLa Tet-On 3G, Firefly luciferase). The experiment is classed as cell-based. The following applies: HeLa L1 artificial-intron reporter cells, doxycycline 500 ng/mL, 72 h, class symbols. Summed up:
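HeLa Tet-On 3G clone stably carrying a bi-directional doxycycline-inducible artificial-intron LINE1 reporter, plated at 8,000 cells/well onto serially diluted compound. Expression induced with 500 ng/mL doxycycline (final); Firefly luciferase luminescence (Dual-Glo) read 72 h after plating as LINE1 activity.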

Experiment [2] relates to THP1-Dual KO-TREX1 xenograft tumors. The experiment is described as follows: Altering IFN production in THP1 TREX1 KO xenografts (compounds 2, 25, 40). The experiment is classed as in vivo, mouse. The settings on record: CB-17 SCID mice, decitabine 5 mg/kg IP, test compound 10, 30 or 100 mg/kg PO once daily 4 days, tumors 24 h post-last dose. As for the experimental part:
Exemplary compounds 2, 25 and 40 were tested for their ability to alter IFN levels in THP1-Dual™ KO-TREX1 xenografts in mice. Assay procedures are described below.
CB-17 SCID female mice were inoculated subcutaneously with 10 million THP1-Dual™ KO-TREX1 cells in 200 μl PBS with Matrigel (1:1) and grouped when tumor volume reached 350-400 mm^3. Mice bearing THP1-Dual™ KO-TREX1 xenograft tumors were then separated into 5 groups. Three groups were administered: (1) decitabine (DAC) at 5 mg/kg IP, once daily, for 4 days, and (2) test compound at 10, 30, or 100 mg/kg, PO, once daily, for 4 days. One group was administered decitabine (DAC) at 5 mg/kg IP, once daily, for 4 days, and the test compound vehicle control. The final group was administered the vehicle control from both the test compound and the vehicle control from decitabine. Decitabine is formulated in sterile PBS, pH 7.4, and Compound 2, 25, and 40 were formulated in 20% PEG400 in PBS.
Tumors were harvested 24 h post-last dose administered on day 4, ground in PBS at 50 Hz for 5 min, and kept on ice for 30 min while being vortexed every 5 min. […] Equal amounts of proteins were added to 96-well black plates, and luciferase signal was measured using the QUANTI-Luc™ detection medium according to manufacturer's instructions. Luminescence was measured using the EnVision® 2105 Multimode Plate Reader. […]

Each structure is given as a SMILES string.

T1 sequence (O00370 whole entry, looked up): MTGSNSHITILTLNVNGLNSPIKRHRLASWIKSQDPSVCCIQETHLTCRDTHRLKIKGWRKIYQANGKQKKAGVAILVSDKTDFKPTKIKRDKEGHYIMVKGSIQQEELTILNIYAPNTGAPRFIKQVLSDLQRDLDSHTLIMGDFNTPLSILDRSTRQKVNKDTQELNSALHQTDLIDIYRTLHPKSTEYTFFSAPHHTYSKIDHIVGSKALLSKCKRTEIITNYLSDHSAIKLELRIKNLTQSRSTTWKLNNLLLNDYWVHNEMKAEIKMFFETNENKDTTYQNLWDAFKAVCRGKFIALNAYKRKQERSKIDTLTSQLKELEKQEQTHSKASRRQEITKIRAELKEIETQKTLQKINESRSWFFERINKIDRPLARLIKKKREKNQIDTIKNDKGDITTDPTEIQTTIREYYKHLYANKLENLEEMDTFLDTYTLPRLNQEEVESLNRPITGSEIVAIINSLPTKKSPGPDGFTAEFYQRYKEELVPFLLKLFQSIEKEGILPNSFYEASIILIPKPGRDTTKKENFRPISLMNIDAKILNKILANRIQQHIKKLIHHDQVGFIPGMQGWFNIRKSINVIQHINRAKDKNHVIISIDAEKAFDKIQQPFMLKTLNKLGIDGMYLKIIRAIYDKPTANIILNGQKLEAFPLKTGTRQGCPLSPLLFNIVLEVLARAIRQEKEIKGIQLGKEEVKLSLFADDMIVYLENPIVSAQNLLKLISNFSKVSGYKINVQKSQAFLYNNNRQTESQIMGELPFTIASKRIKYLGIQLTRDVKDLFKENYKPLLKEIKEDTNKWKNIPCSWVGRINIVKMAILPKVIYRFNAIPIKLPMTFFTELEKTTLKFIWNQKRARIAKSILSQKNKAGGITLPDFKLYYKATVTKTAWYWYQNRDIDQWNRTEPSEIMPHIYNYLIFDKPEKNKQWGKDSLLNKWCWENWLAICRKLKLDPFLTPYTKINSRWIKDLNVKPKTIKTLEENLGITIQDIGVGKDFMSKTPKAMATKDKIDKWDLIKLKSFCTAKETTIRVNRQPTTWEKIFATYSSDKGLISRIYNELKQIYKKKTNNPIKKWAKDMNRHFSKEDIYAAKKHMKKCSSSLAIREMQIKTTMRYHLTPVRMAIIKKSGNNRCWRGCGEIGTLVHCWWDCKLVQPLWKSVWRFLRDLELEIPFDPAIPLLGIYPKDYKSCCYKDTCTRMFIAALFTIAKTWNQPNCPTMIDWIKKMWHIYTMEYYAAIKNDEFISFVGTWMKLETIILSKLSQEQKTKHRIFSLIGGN

For `Nc1ccn([C@H]2C[C@H](O)[C@](CO)(CCl)O2)c(=O)n1` [Compound 2, 4-amino-1-((2R,4S,5R)-5-(chloromethyl)-4-hydroxy-5-(hydroxymethyl)tetrahydrofuran-2-yl)pyrimidin-2(1H)-one], the “best BRAID fit k” value in the experiment on THP1 Dual TREX1 KO cells is reported as 2.00 (0.583-3.64). Moreover, the half-inhibitory concentration (IC50) – broadly, the midpoint of a concentration-inhibition curve – in experiment [1] was no more than 50 nM. Besides, in experiment [2], the “inhibition of DAC-induced IFN signal in THP1 tumors” value is given as “potent inhibition of DAC-induced IFN signal”.
